Molecular target: T1, EP4 receptor (Homo sapiens, UniProt P35408)
T1 construct: BT549 breast cancer cells, express high endogenous EP4 levels and very low EP2 levels; host or cells: BT549 breast cancer cells
Test: hEP4 cAMP assay (BT549 breast cancer cells, HTRF cAMP, PGE2 stimulation)
Format: cell-based
Details: antagonistic activity, PGE2 6 nM (EC80)
Summary of the method: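 BT549 cells, with endogenous EP4 and very low EP2, were preincubated 45 min at room temperature with compound in HBSS/HEPES/BSA buffer with 2 mM IBMX. They were then stimulated 30 min with 6 nM PGE2 (EC80). cAMP was measured by HTRF competitive immunoassay against a calibrator; IC50 from duplicate dose-response as % of DMSO control.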

T1 sequence (P35408 whole entry): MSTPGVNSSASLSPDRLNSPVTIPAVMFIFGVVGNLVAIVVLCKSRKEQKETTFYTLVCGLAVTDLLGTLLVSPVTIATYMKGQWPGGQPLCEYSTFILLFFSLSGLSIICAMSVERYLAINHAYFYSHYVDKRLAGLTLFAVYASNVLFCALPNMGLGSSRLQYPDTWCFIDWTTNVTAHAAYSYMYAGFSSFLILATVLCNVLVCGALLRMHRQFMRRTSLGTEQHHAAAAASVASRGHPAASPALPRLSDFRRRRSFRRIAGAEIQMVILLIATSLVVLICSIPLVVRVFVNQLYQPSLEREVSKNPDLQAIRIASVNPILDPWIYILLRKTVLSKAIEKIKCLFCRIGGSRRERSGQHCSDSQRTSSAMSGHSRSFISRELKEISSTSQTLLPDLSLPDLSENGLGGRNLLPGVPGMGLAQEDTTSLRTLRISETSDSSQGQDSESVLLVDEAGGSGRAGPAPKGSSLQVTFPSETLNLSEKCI

Row | SMILES | IC50 [nM]
1 | Cc1sc2c(C)cc(F)cc2c1CCNc1cc(-c2ccc(C(=O)O)c(O)c2)ncn1 [Example 10, 4-{6-[2-(5-Fluoro-2,7-dimethyl-benzo[b]thiophen-3-yl)-ethylamino]-pyrimidin-4-yl}-2-hydroxy-benzoic acid] | 860
2 | Cc1sc2c(C)cc(F)cc2c1CCNc1cc(-c2ccc(C(=O)O)c(OC(F)F)c2)ncn1 [Example 115, 2-Difluoromethoxy-4-{6-[2-(5-fluoro-2,7-dimethyl-benzo[b]thiophen-3-yl)-ethylamino]-pyrimidin-4-yl}-benzoic acid] | 60
3 | CCOc1cc(-c2cc(NCCc3c(C)oc4c(OC)cc(Cl)cc34)ncn2)ccc1OCC(=O)O [Example 121, (4-{6-[2-(5-Chloro-7-methoxy-2-methyl-benzofuran-3-yl)-ethylamino]-pyrimidin-4-yl}-2-ethoxy-phenoxy)-acetic acid] | 129
4 | O=C(O)c1ccc(-c2cc(NCCc3csc4ccccc34)ncn2)cc1OC1CCC1 [Example 132, 4-[6-(2-Benzo[b]thiophen-3-yl-ethylamino)-pyrimidin-4-yl]-2-cyclobutoxy-benzoic acid] | 166
5 | COc1cc(Cl)cc2c(CCNc3cc(-c4cc(F)c(C(=O)O)c(OC5CCC5)c4)ncn3)c(C)oc12 [Example 151, 4-{6-[2-(5-Chloro-7-methoxy-2-methyl-benzofuran-3-yl)-ethylamino]-pyrimidin-4-yl}-2-cyclobutoxy-6-fluoro-benzoic acid] | 631
6 | CCCOc1cc(-c2cc(NCCc3c(C)sc4c(OC)ccc(Cl)c34)ncn2)ccc1C(=O)O [Example 101, 4-{6-[2-(4-Chloro-7-methoxy-2-methyl-benzo[b]thiophen-3-yl)-ethylamino]-pyrimidin-4-yl}-2-propoxy-benzoic acid] | 482
7 | CCOc1cc(-c2cc(NCCc3c(C)sc4c(C)cccc34)ncn2)ccc1CC(=O)O [Example 109, (4-{6-[2-(2,7-Dimethyl-benzo[b]thiophen-3-yl)-ethylamino]-pyrimidin-4-yl}-2-ethoxy-phenyl)-acetic acid] | 290
8 | CCOc1cc(-c2cc(NCCc3c(C)sc4c(OC)ccc(F)c34)ncn2)ccc1CC(=O)O [Example 105, (2-Ethoxy-4-{6-[2-(4-fluoro-7-methoxy-2-methyl-benzo[b]thiophen-3-yl)-ethylamino]-pyrimidin-4-yl}-phenyl)-acetic acid] | 125
9 | COc1ccc(F)c2c(CCNc3cc(-c4cc(F)c(C(=O)O)c(OC5CCC5)c4)ncn3)c(C)sc12 [Example 149, 2-Cyclobutoxy-6-fluoro-4-{6-[2-(4-fluoro-7-methoxy-2-methyl-benzo[b]thiophen-3-yl)-ethylamino]-pyrimidin-4-yl}-benzoic acid] | 241
10 | CCOc1cc(-c2cc(NCCc3c(C)sc4c(C)cc(F)cc34)ncn2)sc1/C=C/C(=O)O [Example 96, (E)-3-(3-Ethoxy-5-{6-[2-(5-fluoro-2,7-dimethyl-benzo[b]thiophen-3-yl)-ethylamino]-pyrimidin-4-yl}-thiophen-2-yl)-acrylic acid] | 42
11 | CCCCOc1cc(-c2cc(NCCc3c(C)sc4c(C)cc(F)cc34)ncn2)ccc1C(=O)O [Example 127, 2-Butoxy-4-{6-[2-(5-fluoro-2,7-dimethyl-benzo[b]thiophen-3-yl)-ethylamino]-pyrimidin-4-yl}-benzoic acid] | 873
12 | COc1ccc(F)c2c(CCNc3cc(-c4ccc(C(=O)O)c(OC5CCC5)c4)ncn3)c(C)sc12 [Example 134, 2-Cyclobutoxy-4-{6-[2-(4-fluoro-7-methoxy-2-methyl-benzo[b]thiophen-3-yl)-ethylamino]-pyrimidin-4-yl}-benzoic acid] | 194
13 | COc1cc(F)c(F)c2c(CCNc3cc(-c4cc(F)c(C(=O)O)c(OC5CCC5)c4)ncn3)c(C)oc12 [Example 150, 2-Cyclobutoxy-4-{6-[2-(4,5-difluoro-7-methoxy-2-methyl-benzofuran-3-yl)-ethylamino]-pyrimidin-4-yl}-6-fluoro-benzoic acid] | 450
14 | COc1ccc(F)c2c(CCNc3cc(-c4ccc(C(=O)O)c(OC5CCC5)c4F)ncn3)c(C)sc12 [Example 146, 2-Cyclobutoxy-3-fluoro-4-{6-[2-(4-fluoro-7-methoxy-2-methyl-benzo[b]thiophen-3-yl)-ethylamino]-pyrimidin-4-yl}-benzoic acid] | 243

Now from value to compound:

Row | IC50 [nM] | SMILES
15 | 378 | Cc1sc2c(C)cc(F)cc2c1CCNc1cc(-c2ccc(CC(=O)O)c(CC(C)C)c2)ncn1 [Example 182, (4-{6-[2-(5-Fluoro-2,7-dimethyl-benzo[b]thiophen-3-yl)-ethylamino]-pyrimidin-4-yl}-2-isobutyl-phenyl)-acetic acid]
16 | 121 | CCOc1cc(-c2cc(NCCc3c(C)sc4c(C)cc(F)cc34)ncn2)ccc1C(=O)C(=O)O [Example 189, (2-Ethoxy-4-{6-[2-(5-fluoro-2,7-dimethyl-benzo[b]thiophen-3-yl)-ethylamino]-pyrimidin-4-yl}-phenyl)-oxo-acetic acid]
17 | 827 | COc1ccc(Cl)c2c(CCNc3cc(-c4ccc(C(=O)O)c(OC5CCCC5)c4)ncn3)c(C)sc12 [Example 153, 4-{6-[2-(4-Chloro-7-methoxy-2-methyl-benzo[b]thiophen-3-yl)-ethylamino]-pyrimidin-4-yl}-2-cyclopentyloxy-benzoic acid]
18 | 980 | Cc1sc2c(C)cccc2c1CCNc1cc(-c2ccc(C(=O)O)c(SC3CCC3)c2)ncn1 [Example 130, 2-Cyclobutylsulfanyl-4-{6-[2-(2,7-dimethyl-benzo[b]thiophen-3-yl)-ethylamino]-pyrimidin-4-yl}-benzoic acid]
19 | 115 | CCOc1cc(-c2cc(NCCc3c(C)sc4c(C)cc(F)cc34)ncn2)ccc1OCCC(=O)O [Example 143, 3-(2-Ethoxy-4-{6-[2-(5-fluoro-2,7-dimethyl-benzo[b]thiophen-3-yl)-ethylamino]-pyrimidin-4-yl}-phenoxy)-propionic acid]
20 | 163 | CCOc1cc(-c2cc(NCCc3c(C)sc4c(C)cc(F)cc34)ncn2)sc1C(=O)NS(N)(=O)=O [Example 156, 3-Ethoxy-5-(6-((2-(5-fluoro-2,7-dimethylbenzo[b]thiophen-3-yl)ethyl)amino)pyrimidin-4-yl)-N-sulfamoylthiophene-2-carboxamide]
21 | 30 | CCCOc1cc(-c2cc(NCCc3c(C#N)sc4c(C)cc(F)cc34)ncn2)ccc1CC(=O)O [Example 169, (4-{6-[2-(2-Cyano-5-fluoro-7-methyl-benzo[b]thiophen-3-yl)-ethylamino]-pyrimidin-4-yl}-2-propoxy-phenyl)-acetic acid]
22 | 18 | CCOc1nc(-c2cc(NCCc3c(C)sc4c(C)cc(F)cc34)ncn2)sc1C(=O)O [Example 160, 4-Ethoxy-2-{6-[2-(5-fluoro-2,7-dimethyl-benzo[b]thiophen-3-yl)-ethylamino]-pyrimidin-4-yl}-thiazole-5-carboxylic acid]
23 | 40 | CCOc1cc(-c2cc(NCCc3c(C#N)sc4c(C)cc(F)cc34)ncn2)cc(F)c1CC(=O)O [Example 165, (4-{6-[2-(2-Cyano-5-fluoro-7-methyl-benzo[b]thiophen-3-yl)-ethylamino]-pyrimidin-4-yl}-2-ethoxy-6-fluoro-phenyl)-acetic acid]

Source: US11325899B2, “Benzofurane and benzothiophene derivatives as PGE2 receptor modulators” (IDORSIA PHARMACEUTICALS LTD, priority 2017, dated 2022)
